Measurements as given in ChEMBL document CHEMBL1201862, “PubChem BioAssay data set” (2004).
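Cultured in 96-well plates, cells were exposed to test compound for 48 hours across five concentrations. The concentration for 50% growth inhibition is given as GI50.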 Calls of active or inactive are those of the source. Cut-off read from the data, not from the text of the source: active = GI50 up to about 1.1 µM and inactive = higher.

What was measured:
Test in all cases: NCI anticancer screen, dose series, 48 h
[1] = tested on: NCI-H226
[2] = tested on: KM12
[3] = tested on: LOX IMVI
[4] = tested on: NCI-H522
[5] = tested on: ACHN
[6] = tested on: SF-539
[7] = tested on: A498
[8] = tested on: SF-295
[9] = tested on: RXF 393
[10] = tested on: HCT-15
[11] = tested on: NCI-H23
[12] = tested on: MOLT-4
[13] = tested on: RPMI-8226
[14] = tested on: HL-60
[15] = tested on: HCC 2998
[16] = tested on: UACC-62
[17] = tested on: OVCAR-5
[18] = tested on: MDA-MB-231
[19] = tested on: MDA-N
[20] = tested on: BT-549

Structure (SMILES) | GI50 [1] | GI50 [2] | GI50 [3] | GI50 [4] | GI50 [5] | GI50 [6] | GI50 [7] | GI50 [8] | GI50 [9] | GI50 [10] [µM] | GI50 [11] | GI50 [12] | GI50 [13] | GI50 [14] | GI50 [15] | GI50 [16] | GI50 [17] | GI50 [18] | GI50 [19] | GI50 [20]
Oc1ccc2c(c1)OCC1(O)Cc3cc(O)c(O)cc3C21 (stereo not given) | > 52.5 µM (inactive) | 32.7 µM (inactive) | 19.4 µM (inactive) | 21.3 µM (inactive) | 18.2 µM (inactive) | 17 µM (inactive) | 19.1 µM (inactive) | > 55.5 µM (inactive) | 15.9 µM (inactive) | 20.2 | 18.1 µM (inactive) | 24.4 µM (inactive) | 26.5 µM (inactive) | 25.6 µM (inactive) | 21.2 µM (inactive) | 19.7 µM (inactive) | 22.5 µM (inactive) | – | – | –
COc1cc2c(c(O)c1O)-c1ccc(OC)c(=O)cc1C(NC(C)=O)CC2 (stereo not given) | 43.2 µM (inactive) | 3.13 µM (inactive) | 6.82 µM (inactive) | 2.42 µM (inactive) | 74.6 µM (inactive) | 3.2 µM (inactive) | 34.1 µM (inactive) | 12.5 µM (inactive) | 14.6 µM (inactive) | > 95.1 | 5.06 µM (inactive) | 5.5 µM (inactive) | 3.86 µM (inactive) | 2.21 µM (inactive) | 8.05 µM (inactive) | 6.98 µM (inactive) | 76.6 µM (inactive) | – | – | –
CCCC(=O)Oc1ccc(/C=N/NC(N)=S)nc1 | > 100 µM (inactive) | > 100 µM (inactive) | 54.3 µM (inactive) | 69 µM (inactive) | 35.6 µM (inactive) | 36.5 µM (inactive) | > 100 µM (inactive) | > 100 µM (inactive) | > 100 µM (inactive) | > 100 | > 100 µM (inactive) | 46.8 µM (inactive) | > 100 µM (inactive) | 45.1 µM (inactive) | > 100 µM (inactive) | 64.1 µM (inactive) | > 100 µM (inactive) | – | – | –
C#CCCOC1(OC)N=NC(C)(C)O1 (stereo not given) | > 100 µM (inactive) | > 100 µM (inactive) | > 100 µM (inactive) | > 100 µM (inactive) | > 100 µM (inactive) | > 100 µM (inactive) | > 100 µM (inactive) | > 100 µM (inactive) | > 100 µM (inactive) | > 100 | > 100 µM (inactive) | > 100 µM (inactive) | > 100 µM (inactive) | > 100 µM (inactive) | > 100 µM (inactive) | > 100 µM (inactive) | > 100 µM (inactive) | > 100 µM (inactive) | > 100 µM (inactive) | –
BrCc1ccc2ccc3ccc(CBr)nc3c2n1 | 5.92 µM (inactive) | 3.61 µM (inactive) | 1.58 µM (inactive) | – | 2.1 µM (inactive) | 4.67 µM (inactive) | 2.64 µM (inactive) | 10.4 µM (inactive) | 2.24 µM (inactive) | 2.01 | 5.61 µM (inactive) | 1.65 µM (inactive) | 0.887 µM (active) | 1.38 µM (inactive) | 2.86 µM (inactive) | 3.26 µM (inactive) | 9.44 µM (inactive) | 1.62 µM (inactive) | 2.74 µM (inactive) | –
CCCCCCCC(=O)OCC1OC(OC)C(NC(=O)N(CCCl)N=O)C(O)C1O (stereo not given) | 15.7 µM (inactive) | 9.89 µM (inactive) | 0.908 µM (active) | 11.2 µM (inactive) | 7.18 µM (inactive) | 2.64 µM (inactive) | 21.5 µM (inactive) | 4.07 µM (inactive) | 16.1 µM (inactive) | 3.27 | 8.28 µM (inactive) | 3.05 µM (inactive) | 16.3 µM (inactive) | 4.14 µM (inactive) | 14.3 µM (inactive) | 1.86 µM (inactive) | 26.4 µM (inactive) | – | – | –
Cc1cn(C2CC(OC(=O)c3ccc(Cl)cc3)C(COC(=O)c3ccc(Cl)cc3)O2)c(=O)[nH]c1=O (stereo not given) | > 100 µM (inactive) | > 100 µM (inactive) | > 100 µM (inactive) | > 100 µM (inactive) | > 100 µM (inactive) | – | – | > 100 µM (inactive) | – | > 100 | > 100 µM (inactive) | > 100 µM (inactive) | > 100 µM (inactive) | > 100 µM (inactive) | – | > 100 µM (inactive) | > 100 µM (inactive) | – | > 100 µM (inactive) | > 100 µM (inactive)
CC(C)(C)OC(=O)NCCCC(=O)NC1(c2cc3ccccc3s2)CCCCC1 | – | 17 µM (inactive) | 16 µM (inactive) | 13.1 µM (inactive) | 22.8 µM (inactive) | 15.5 µM (inactive) | 17.6 µM (inactive) | 16.6 µM (inactive) | 9.42 µM (inactive) | 15.6 | 27.2 µM (inactive) | 14.6 µM (inactive) | 11.7 µM (inactive) | 6.76 µM (inactive) | 21.6 µM (inactive) | 10.8 µM (inactive) | – | – | 15.8 µM (inactive) | 15.1 µM (inactive)
CN(CC(=O)O)c1ncc2c(n1)CCCC2 | > 100 µM (inactive) | > 100 µM (inactive) | > 100 µM (inactive) | > 100 µM (inactive) | > 100 µM (inactive) | > 100 µM (inactive) | > 100 µM (inactive) | > 100 µM (inactive) | > 100 µM (inactive) | > 100 | > 100 µM (inactive) | > 100 µM (inactive) | > 100 µM (inactive) | > 100 µM (inactive) | – | > 100 µM (inactive) | > 100 µM (inactive) | > 100 µM (inactive) | > 100 µM (inactive) | –
CCOC(=O)C1=C(N2CCCC2)NC(=O)CC1=O | > 100 µM (inactive) | > 100 µM (inactive) | > 100 µM (inactive) | > 100 µM (inactive) | > 100 µM (inactive) | > 100 µM (inactive) | > 100 µM (inactive) | > 100 µM (inactive) | > 100 µM (inactive) | > 100 | > 100 µM (inactive) | > 100 µM (inactive) | > 100 µM (inactive) | > 100 µM (inactive) | > 100 µM (inactive) | > 100 µM (inactive) | > 100 µM (inactive) | > 100 µM (inactive) | > 100 µM (inactive) | –
Cn1c2ccccc2c2c(-c3ccccc3)[n+]3ccccc3nc21 | – | 17.1 µM (inactive) | 18.5 µM (inactive) | 25.4 µM (inactive) | 98.6 µM (inactive) | 34.8 µM (inactive) | > 100 µM (inactive) | 46.3 µM (inactive) | – | > 100 | 23.2 µM (inactive) | 42.2 µM (inactive) | 17.8 µM (inactive) | 24.8 µM (inactive) | – | 21.2 µM (inactive) | 50.9 µM (inactive) | 32.9 µM (inactive) | – | 23 µM (inactive)
O=Cc1c2c(cc3c1CC1(C3)Cc3cc4c(c(C=O)c3C1)CCC4)CCC2 | 29.1 µM (inactive) | – | 21.8 µM (inactive) | 24.9 µM (inactive) | 16.6 µM (inactive) | 37.5 µM (inactive) | 30.7 µM (inactive) | 59.3 µM (inactive) | 41.3 µM (inactive) | > 100 | 45.3 µM (inactive) | 11.3 µM (inactive) | 43.6 µM (inactive) | 27.5 µM (inactive) | 36.6 µM (inactive) | 22.3 µM (inactive) | > 100 µM (inactive) | 23.5 µM (inactive) | 48.2 µM (inactive) | –
CN(C)C(=O)N1N[C@H](c2ccccc2)[C@@H]1c1ccccc1 | > 100 µM (inactive) | > 100 µM (inactive) | > 100 µM (inactive) | > 100 µM (inactive) | > 100 µM (inactive) | > 100 µM (inactive) | > 100 µM (inactive) | 72.3 µM (inactive) | 13.5 µM (inactive) | > 100 | > 100 µM (inactive) | > 100 µM (inactive) | > 100 µM (inactive) | – | > 100 µM (inactive) | > 100 µM (inactive) | – | > 100 µM (inactive) | > 100 µM (inactive) | –
Nc1ccccc1C(=O)/C=C/c1c(O)ccc2ccccc12 | > 100 µM (inactive) | > 100 µM (inactive) | 19.2 µM (inactive) | > 100 µM (inactive) | > 100 µM (inactive) | > 100 µM (inactive) | > 100 µM (inactive) | > 100 µM (inactive) | > 100 µM (inactive) | > 100 | > 100 µM (inactive) | > 100 µM (inactive) | > 100 µM (inactive) | > 100 µM (inactive) | > 100 µM (inactive) | > 100 µM (inactive) | > 100 µM (inactive) | – | – | –
NC(=O)NC(=O)c1cccc(C(=O)NC(N)=O)n1 | > 100 µM (inactive) | > 100 µM (inactive) | > 100 µM (inactive) | > 100 µM (inactive) | > 100 µM (inactive) | > 100 µM (inactive) | > 100 µM (inactive) | > 100 µM (inactive) | > 100 µM (inactive) | > 100 | > 100 µM (inactive) | > 100 µM (inactive) | > 100 µM (inactive) | > 100 µM (inactive) | > 100 µM (inactive) | > 100 µM (inactive) | > 100 µM (inactive) | > 100 µM (inactive) | > 100 µM (inactive) | –
N=C(N)N/N=C/c1c(-c2cc([N+](=O)[O-])c(Cl)cc2Cl)nc2n1CCS2 | 34.4 µM (inactive) | 4.83 µM (inactive) | 6.35 µM (inactive) | 17 µM (inactive) | 22.4 µM (inactive) | 42.5 µM (inactive) | 77.3 µM (inactive) | 25.6 µM (inactive) | 41.5 µM (inactive) | 47 | 5.33 µM (inactive) | 6.79 µM (inactive) | 7.6 µM (inactive) | 5.08 µM (inactive) | 2.55 µM (inactive) | 25.5 µM (inactive) | 79.3 µM (inactive) | 24.1 µM (inactive) | – | 3.18 µM (inactive)
